# Experimental data published in USRE37410E, “Controlled local delivery of chemotherapeutic agents for treating solid tumors” (priority 1999, dated 2001).
# Like-named read-outs stand apart in the source and are kept apart here.
# Assays:
# 9L [1] = assay: Intracranial local drug delivery by polymer implant in rat glioma model, median survival (Table 1 summary); settings: in vivo
# 9L [2] = assay type: cell-based; settings: Rattus norvegicus, read-out: LD90 (the source's name)
# F98 = assay type: cell-based; settings: Rattus norvegicus, continuous 6-8 days exposure, read-out: LD90 (the source's name)
# [3] = test system: 9L, F98, U373, H80, U87, D324 cell lines; assay: In vitro efficacy of paclitaxel on several cell lines (clonogenic assay); assay type: cell-based, rat and human
# [4] = Intracerebral distribution of paclitaxel from polymer implant; assay type: in vivo, rat; settings: for time course of paclitaxel brain concentration: 30 days after implant
# Description: Animals. Male Fischer 344 rats weighing 200-225 g were obtained from Harlan Sprague-Dawley, Inc. (Indianapolis, Ind.), kept in standard animal facilities with 4 rats/cage, and given free access to Certified Rodent Chow No. 5002 (Ralston Purina Co., St. Louis, Mo.) and to Baltimore city water.
# Preparation of the paclitaxel loaded polymer. Polymer discs containing labeled paclitaxel were prepared as above, except that a small amount of ^3 H-labeled paclitaxel (specific activity, 19.3 Ci/mmol; National Cancer Institute) in toluene was added to the initial solution of polymer and paclitaxel in methylene chloride. The polymer-paclitaxel mixture was then dried in a vacuum desiccator and pressed into discs using a table vise calibrated to form a pellet.
# Paclitaxel-polymer implantation. The procedure for polymer implantation in the rat has been described by Tamargo, R. J., et al. (Cancer Res. 53:329-333 (1993)), the teachings of which are incorporated herein by reference. Briefly, the heads of anesthetized rats were shaved and prepared aseptically. The skull was exposed with a midline incision, and a 3-mm burr hole was drilled through the skull 5 mm posterior and 3 mm lateral to the bregma. The dura was incised with a microsurgical knife (Edward Weck and Co., Inc., Research Triangle Park, N.C.), and the polymer disc was inserted into the brain parenchyma. The wound was irrigated and closed with surgical clips (Clay Adams, Parsippany, N.J.).
# Protocol for intracerebral drug distribution. Twelve rats were given implants of 10-mg discs containing 40% paclitaxel by weight and 0.60 μCi/mg disc weight. At 3, 9, 17, and 30 days postimplantation, groups of 3 rats each were euthanized. The skull was opened and the brain exposed. The polymer disc was removed from the brain in situ. The brain was then removed from the skull and snap frozen in heptane over dry ice. The brain was sectioned in the midline into implant and contralateral hemispheres. Each hemisphere was sectioned coronally at 2-mm intervals by using a tissue blade grid consisting of individual tissue blades arranged in parallel separated by 2-mm metal spacers. Each section was weighed, dissolved in 15 ml Solvable homogenizing solution (New England Nuclear Dupont, Boston, Mass.), and combined with 15 ml Atomlight™ scintillation mixture (New England Nuclear Dupont). The brain samples were counted on a Beckman liquid scintillation counter. Raw counts were corrected for quenching and converted to dpm using a linear regression based on a series of quenched standards.
# To convert dpm/mg tissue to paclitaxel concentration, a second experiment was performed. Four rats were given implants of 40% loaded polymer discs with 0.39 μCi/mg. One rat each was sacrificed at 3, 9, 17, and 30 days. The brain was removed and frozen as above. A 2-mm coronal section was taken through the site of the polymer implant. The section was minced and extracted with ethanol. The ethanol fraction was divided in two. […] The Rf value for the paclitaxel was determined and each lane cut into 4 sections: A. origin; B, origin to paclitaxel spot; C. paclitaxel spot; and D. paclitaxel spot to solvent front. The chromatography strips were combined with Atomlight™ mixture and counted in a liquid scintillation counter. […] To determine the efficiency of extraction, the remaining half of the original extract was combined with mixture and counted, and the residual brain tissue was homogenized and counted as above. […]
# [5] = cell-culture medium; cited from earlier work
# [6] = human, in vivo; cited from earlier work
# [7] = in vivo; cited from earlier work
# [8] = maintenance of sufficient systemic levels; cited from earlier work
# intracranial gliomas = settings: i.p.; cited from earlier work
# [9] = test system: ovarian, breast, lung, and prostatic cancer and melanoma; settings: cited from earlier work
smiles,measurement,setting,value
CC(=O)O[C@H]1C(=O)[C@@]2(C)[C@H]([C@H](OC(=O)c3ccccc3)[C@]3(O)C[C@H](OC(=O)[C@H](O)[C@@H](NC(=O)c4ccccc4)c4ccccc4)C(C)=C1C3(C)C)[C@]1(OC(C)=O)CO[C@@H]1C[C@@H]2O [paclitaxel],% increase survival,9L [1],215%
same,"Median survival in days, Rx group",9L [1],61.5
same,IC90,"9L [2]; 1 h, 1 h exposure",890 nM
same,IC90,"9L [2]; 24 h, 24 h exposure",100 nM
same,IC90,F98,25 nM
same,factor of potency increase in vitro,[3]; exposure for more than 24 h,two to four
same,concentration at which log cell kill occurred,[3]; rat and human brain-tumor cell lines,nanomolecular concentrations
same,amount required for log cell kill in rat lines relative to human lines,"[3]; rat lines (9L, F98) vs human lines (U87, U373, H80), 6-8 days",four to ten
same,time course of paclitaxel brain concentration,[4],still constant or rising throughout the rat brain 30 days after implant
same,time course of paclitaxel brain concentration,[4]; listed as Paclitaxel,increased slightly during the 30 days
same,duration of elevated paclitaxel concentration in brain,[4]; after implantation in the rat brain,at least one month
same,raw counts tissue bound,"[4]; brain, each time point",31±3%
same,raw counts representing parent drug,"[4]; brain, each time point, ± standard error of the mean",approximately 56±3%
same,hydrolysis to inactive compounds,[5],less than 10%
same,clearance,[6],extensive non-renal clearance
same,penetration of intact blood-brain barrier,[7],"penetrates the intact blood-brain barrier poorly, if at all"
same,systemic toxicity,[8],"severe, in some cases ""life-threatening"" toxicity"
same,increased survival from systemic intraperitoneal injections,intracranial gliomas,no increased survival
same,concentrations cytotoxic in vitro,[9],nanomolecular concentrations
